Read-outs that look alike come from different tables or passages of the source.
Legend:
FAAH [1] = target: T1, FAAH (Mus musculus, UniProt O08914); test: In vitro competitive activity-based protein profiling (mouse), FAAH; type: biochemical; settings: for IC50: mouse brain membrane fraction or cell lysates, 30 min preincubation at 37° C, FP-Rh probe; for inhibition at 1 µM: mouse proteome, in vitro
T1 construct: Proteomes (mouse brain membrane fraction or cell lysates); from tissue; host or cells: mouse brain membrane fraction (or unspecified cell lysates)
T1 sequence (O08914 1-579): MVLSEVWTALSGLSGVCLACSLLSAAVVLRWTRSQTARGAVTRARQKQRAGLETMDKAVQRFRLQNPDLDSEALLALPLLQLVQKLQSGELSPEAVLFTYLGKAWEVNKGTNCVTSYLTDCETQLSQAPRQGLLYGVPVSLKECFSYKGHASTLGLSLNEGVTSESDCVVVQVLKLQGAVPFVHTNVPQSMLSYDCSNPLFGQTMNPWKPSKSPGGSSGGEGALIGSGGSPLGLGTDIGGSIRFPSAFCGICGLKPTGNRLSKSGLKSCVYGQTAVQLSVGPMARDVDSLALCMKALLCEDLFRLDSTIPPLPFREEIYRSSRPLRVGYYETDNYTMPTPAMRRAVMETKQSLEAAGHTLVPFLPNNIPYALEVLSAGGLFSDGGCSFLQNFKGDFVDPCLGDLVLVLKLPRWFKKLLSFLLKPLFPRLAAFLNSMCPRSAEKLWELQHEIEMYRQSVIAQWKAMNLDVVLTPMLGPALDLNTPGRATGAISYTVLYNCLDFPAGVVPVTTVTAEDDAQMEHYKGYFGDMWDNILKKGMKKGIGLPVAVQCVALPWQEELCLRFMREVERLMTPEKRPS
Method in brief: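 Competitive ABPP: inhibitor exposure (30 min, 37° C) of mouse brain membrane or lysate proteome at 1.0 mg/mL, then labelling with FP-Rh for another 30 min. Activity quantified by in-gel fluorescence of FAAH bands after SDS-PAGE.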

FAAH [2] = target: T1, FAAH; test: Mouse brain proteomes from inhibitor treated mice, FAAH; type: in vivo; settings: 5 mg/kg oral gavage, C57Bl/6J mice, brain proteome 4 h after administration
Procedure: Preparation of Mouse Brain Proteomes from Inhibitor Treated Mice.
Inhibitors were administered to wild-type C57Bl/6J by oral gavage in a vehicle of polyethylene glycol. Each animal was sacrificed 4 h following administration and brain proteomes were prepared and analyzed according to previously established methods (See Niphakis, M. J., et al. (2011) ACS Chem. Neurosci. and Long, J. Z., et al. Nat. Chem. Biol. 5:37-44)

MAGL = target: T2, MAGL (Mus musculus, UniProt O35678); test: In vitro competitive activity-based protein profiling (mouse), MAGL; type: biochemical; settings: for inhibition at 1 µM: read-out: % Inhibition at 1 μM MAGL; for IC50: mouse brain membrane fraction or cell lysates, 30 min preincubation at 37° C, FP-Rh probe
T2 construct: Proteomes (mouse brain membrane fraction or cell lysates); from tissue; host or cells: mouse brain membrane fraction (or unspecified cell lysates)
T2 sequence (O35678 1-303): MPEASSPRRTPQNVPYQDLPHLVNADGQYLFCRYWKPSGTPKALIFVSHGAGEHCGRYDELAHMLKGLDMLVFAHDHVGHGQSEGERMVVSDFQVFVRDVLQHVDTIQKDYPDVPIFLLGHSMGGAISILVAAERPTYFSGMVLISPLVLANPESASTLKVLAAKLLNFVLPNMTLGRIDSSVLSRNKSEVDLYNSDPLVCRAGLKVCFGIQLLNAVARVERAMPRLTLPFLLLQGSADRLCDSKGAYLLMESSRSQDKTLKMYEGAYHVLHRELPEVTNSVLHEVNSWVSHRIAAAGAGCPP
Procedure: (§1) In Vitro Competitive Activity-Based Protein Profiling (Mouse).
(§2) Proteomes (mouse brain membrane fraction or cell lysates) (50 μL, 1.0 mg/mL total protein concentration) were preincubated with varying concentrations of inhibitors at 37° C. After 30 min, FP-Rh (1.0 μL, 50 μM in DMSO) was added and the mixture was incubated for another 30 min at 37° C. Reactions were quenched with SDS loading buffer (50 μL-4×) and run on SDS-PAGE.

ABHD6 = target: T3, ABHD6 (Mus musculus, UniProt Q8R2Y0); test: In vitro competitive activity-based protein profiling (mouse), ABHD6; type: biochemical; settings: for inhibition at 1 µM: read-out: % Inhibition at 1 μM ABHD6; for IC50: mouse brain membrane fraction or cell lysates, 30 min preincubation at 37° C, FP-Rh probe
T3 construct: Proteomes (mouse brain membrane fraction or cell lysates); from tissue; host or cells: mouse brain membrane fraction (or unspecified cell lysates)
T3 sequence (Q8R2Y0 1-336): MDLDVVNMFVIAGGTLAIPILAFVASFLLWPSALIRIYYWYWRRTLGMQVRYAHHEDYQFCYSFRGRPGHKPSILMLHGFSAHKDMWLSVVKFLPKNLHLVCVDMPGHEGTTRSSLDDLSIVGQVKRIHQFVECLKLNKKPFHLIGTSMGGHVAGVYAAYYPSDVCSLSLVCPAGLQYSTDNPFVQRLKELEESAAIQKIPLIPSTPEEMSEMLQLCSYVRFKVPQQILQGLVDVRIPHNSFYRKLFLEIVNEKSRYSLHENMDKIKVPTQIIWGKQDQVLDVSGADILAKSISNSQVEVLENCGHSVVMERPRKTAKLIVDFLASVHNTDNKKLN
Procedure: as §1, §2

Structure (SMILES) | IC50 (FAAH [1]) [nM] | inhibition at 5 mg/kg (FAAH [2]) [%] | inhibition at 1 µM (FAAH [1]) [%] | inhibition at 1 µM (MAGL; 1 μM, mouse proteome, in vitro) [%] | IC50 (MAGL) [nM] | inhibition at 1 µM (ABHD6; 1 μM, mouse proteome, in vitro) [%] | IC50 (ABHD6) [nM] | inhibition at 1 µM (MAGL) [%] | inhibition at 1 µM (ABHD6) [%]
O=C(OC(C(F)(F)F)C(F)(F)F)N1CCN(Cc2ccc(Cl)cc2N2CC3CCC(C2)O3)CC1 [Example 30, 1,1,1,3,3,3-hexafluoropropan-2-yl 4-(2-(8-oxa-3-azabicyclo[3.2.1]octan-3-yl)-4-chlorobenzyl)piperazine-1-carboxylate] | > 1000 | < 25 |  |  |  |  |  |  | 
O=C(OC(C(F)(F)F)C(F)(F)F)N1CCN(Cc2ccc(C(F)(F)F)cc2N2CC3CCC(C2)O3)CC1 [Example 59, 1,1,1,3,3,3-hexafluoropropan-2-yl 4-(2-(8-oxa-3-azabicyclo[3.2.1]octan-3-yl)-4-(trifluoromethyl)benzyl)piperazine-1-carboxylate] | > 1000 | < 25 | < 25 |  |  |  |  |  | 
CCOC(=O)C1CCCN1c1cc(CN2CCN(C(=O)OC(C(F)(F)F)C(F)(F)F)CC2)cc(C(F)(F)F)c1 (centres unmarked) [Example 87, 1,1,1,3,3,3-hexafluoropropan-2-yl 4-(3-(2-(ethoxycarbonyl)pyrrolidin-1-yl)-5-(trifluoromethyl)benzyl)piperazine-1-carboxylate] | > 1000 |  | < 25 | > 75 | < 100 | > 75 | 100 to 1000 |  | 
O=C(OC(C(F)(F)F)C(F)(F)F)N1CCN(Cc2ccc(Cl)cc2N2CC[C@H](N3CCCS3(=O)=O)C2)CC1 [Example 46, 1,1,1,3,3,3-hexafluoropropan-2-yl (S)-4-(4-chloro-2-(3-(1,1-dioxidoisothiazolidin-2-yl)pyrrolidin-1-yl)benzyl)piperazine-1-carboxylate] | > 1000 |  | 25 to 75 | > 75 | < 100 | 25 to 75 | > 1000 |  | 
CS(=O)(=O)N[C@H]1CCN(c2cccc(C(F)(F)F)c2CN2CCN(C(=O)OC(C(F)(F)F)C(F)(F)F)CC2)C1 [Example 48, 1,1,1,3,3,3-hexafluoropropan-2-yl (S)-4-(2-(3-(methylsulfonamido)pyrrolidin-1-yl)-6-(trifluoromethyl)benzyl)piperazine-1-carboxylate] |  |  | < 25 | 25 to 75 |  | < 25 |  |  | 
O=C(OC(C(F)(F)F)C(F)(F)F)N1CCN(Cc2c(N3C4CCC3COC4)cccc2C(F)(F)F)CC1 [Example 49, 1,1,1,3,3,3-hexafluoropropan-2-yl 4-(2-(3-oxa-8-azabicyclo[3.2.1]octan-8-yl)-6-(trifluoromethyl)benzyl)piperazine-1-carboxylate] |  |  | < 25 |  |  |  |  | 25 to 75 | < 25
CCOC(=O)C1CCCN1c1cc(C(F)(F)F)ccc1CN1CCN(C(=O)OC(C(F)(F)F)C(F)(F)F)CC1 (centres unmarked) [Example 70, 1,1,1,3,3,3-hexafluoropropan-2-yl 4-(2-(2-(ethoxycarbonyl)pyrrolidin-1-yl)-4-(trifluoromethyl)benzyl)piperazine-1-carboxylate] | > 1000 |  | < 25 | > 75 | < 100 | > 75 | 100 to 1000 |  | 
O=C(OC(C(F)(F)F)C(F)(F)F)N1CCN(Cc2ccc(Cl)cc2N2CCC(C(=O)N3CCCC3)CC2)CC1 [Example 37, 1,1,1,3,3,3-hexafluoropropan-2-yl 4-(4-chloro-2-(4-(pyrrolidine-1-carbonyl)piperidin-1-yl)benzyl)piperazine-1-carboxylate] | > 1000 |  | < 25 | > 75 | 100 to 1000 | < 25 | > 1000 |  | 
O=C(OC(C(F)(F)F)C(F)(F)F)N1CCN(Cc2ccc(N3CC4CCC(C3)O4)cc2F)CC1 [Example 27, 1,1,1,3,3,3-hexafluoropropan-2-yl 4-(4-(8-oxa-3-azabicyclo[3.2.1]octan-3-yl)-2-fluorobenzyl)piperazine-1-carboxylate] | > 1000 |  | < 25 | > 75 | < 100 | 25 to 75 | 100 to 1000 |  | 
Cc1c(CN2CCOCC2)cccc1CN1CCN(C(=O)OC(C(F)(F)F)C(F)(F)F)CC1 [Example 21, 1,1,1,3,3,3-hexafluoropropan-2-yl 4-(2-methyl-3-(morpholinomethyl)benzyl)piperazine-1-carboxylate] | > 1000 |  | < 25 | > 75 | 100 to 1000 | > 75 | 100 to 1000 |  | 

The next lines start with results.

IC50 (FAAH [1]) [nM] | inhibition at 5 mg/kg (FAAH [2]) [%] | inhibition at 1 µM (FAAH [1]) [%] | inhibition at 1 µM (MAGL; 1 μM, mouse proteome, in vitro) [%] | IC50 (MAGL) [nM] | inhibition at 1 µM (ABHD6; 1 μM, mouse proteome, in vitro) [%] | IC50 (ABHD6) [nM] | Structure (SMILES) | inhibition at 1 µM (MAGL) [%] | inhibition at 1 µM (ABHD6) [%]
 |  | < 25 | > 75 |  | < 25 |  | CS(=O)(=O)N[C@@H]1CCN(c2cccc(C(F)(F)F)c2CN2CCN(C(=O)OC(C(F)(F)F)C(F)(F)F)CC2)C1 [Example 47, 1,1,1,3,3,3-hexafluoropropan-2-yl (R)-4-(2-(3-(methylsulfonamido)pyrrolidin-1-yl)-6-(trifluoromethyl)benzyl)piperazine-1-carboxylate] |  | 
> 1000 |  | < 25 | > 75 | < 100 | < 25 | 100 to 1000 | O=C(O)C1CN(c2cc(CN3CCN(C(=O)OC(C(F)(F)F)C(F)(F)F)CC3)ccc2C(F)(F)F)CCO1 (centres unmarked) [Example 83, 4-(5-((4-(((1,1,1,3,3,3-hexafluoropropan-2-yl)oxy)carbonyl)piperazin-1-yl)methyl)-2-(trifluoromethyl)phenyl)morpholine-2-carboxylic acid] |  | 
> 1000 |  | < 25 | > 75 | < 100 | > 75 | 100 to 1000 | O=C(OC(C(F)(F)F)C(F)(F)F)N1CCN(Cc2ccc(C(F)(F)F)c(N3CCC(CO)CC3)c2)CC1 [Example 82, 1,1,1,3,3,3-hexafluoropropan-2-yl 4-(3-(4-(hydroxymethyl)piperidin-1-yl)-4-(trifluoromethyl)benzyl)piperazine-1-carboxylate] |  | 
> 1000 |  | < 25 | > 75 | 100 to 1000 | 25 to 75 | 100 to 1000 | O=C(OC(C(F)(F)F)C(F)(F)F)N1CCN(Cc2cc(N3CCCC3CO)cc(C(F)(F)F)c2)CC1 (centres unmarked) [Example 88, 1,1,1,3,3,3-hexafluoropropan-2-yl 4-(3-(2-(hydroxymethyl)pyrrolidin-1-yl)-5-(trifluoromethyl)benzyl)piperazine-1-carboxylate] |  | 
> 1000 |  | < 25 | > 75 | < 100 | > 75 | 100 to 1000 | O=C(OC(C(F)(F)F)C(F)(F)F)N1CCN(Cc2ccc(C(F)(F)F)cc2N2CCC(CO)C2)CC1 (centres unmarked) [Example 73, 1,1,1,3,3,3-hexafluoropropan-2-yl 4-(2-(3-(hydroxymethyl)pyrrolidin-1-yl)-4-(trifluoromethyl)benzyl)piperazine-1-carboxylate] |  | 

From patent US9771341B2, “Piperazine carbamates and methods of making and using same” (Abide Therapeutics, Inc., priority 2015, dated 2017)
